Assay results taken from ChEMBL document CHEMBL1201862, “PubChem BioAssay data set” (2004).
The source made the active and inactive calls.

Experiments:
[1] = test system: H9c2; assay: cells; assay type: functional, cell-based; conditions: Rattus norvegicus, H9c2, Myocardium;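 further: confirmatory concentration-response retest of ultra-high-throughput screening hits for modulation of myocardial damage; cell death induced by hydrogen peroxide oxidative stress; compound pretreatment for 60 min then peroxide exposure for 2 h; potency is for protecting the cells against peroxide damage rather than for killing them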
[2] = target: Nonstructural protein 1 (Influenza A virus, UniProt Q194T2); assay type: functional, Influenza A virus (A/California/07/2009(H1N1))
[3] = NIH-3T3 fibroblast cytotoxicity, dose response, cytotoxicity control, cell-based, fluorescence, Alamar Blue, secondary assay (AID 2327); assay type: functional;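 further: NIH-3T3 mouse fibroblasts cultured with fluconazole at 8 µg/mL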
[4] = C. albicans growth with fluconazole, confirmation, fluorescence, retest (AID 2467); assay type: functional, cell-based
[5] = Luminescence Cell-Based Dose Retest to Confirm Inhibitors of Cancer Stem Cells. [Related pubchem assays (depositor defined):AID2717, AID2721]; assay type: functional; conditions: Homo sapiens
[6] = target: T1, Replicative DNA helicase DnaB (Mycobacterium tuberculosis, UniProt P9WMR3); assay: DnaB intein splicing inhibitors, dose response, biochemical, cell-free fluorescence (AID 449749); assay type: functional
T1 sequence (P9WMR3 whole entry): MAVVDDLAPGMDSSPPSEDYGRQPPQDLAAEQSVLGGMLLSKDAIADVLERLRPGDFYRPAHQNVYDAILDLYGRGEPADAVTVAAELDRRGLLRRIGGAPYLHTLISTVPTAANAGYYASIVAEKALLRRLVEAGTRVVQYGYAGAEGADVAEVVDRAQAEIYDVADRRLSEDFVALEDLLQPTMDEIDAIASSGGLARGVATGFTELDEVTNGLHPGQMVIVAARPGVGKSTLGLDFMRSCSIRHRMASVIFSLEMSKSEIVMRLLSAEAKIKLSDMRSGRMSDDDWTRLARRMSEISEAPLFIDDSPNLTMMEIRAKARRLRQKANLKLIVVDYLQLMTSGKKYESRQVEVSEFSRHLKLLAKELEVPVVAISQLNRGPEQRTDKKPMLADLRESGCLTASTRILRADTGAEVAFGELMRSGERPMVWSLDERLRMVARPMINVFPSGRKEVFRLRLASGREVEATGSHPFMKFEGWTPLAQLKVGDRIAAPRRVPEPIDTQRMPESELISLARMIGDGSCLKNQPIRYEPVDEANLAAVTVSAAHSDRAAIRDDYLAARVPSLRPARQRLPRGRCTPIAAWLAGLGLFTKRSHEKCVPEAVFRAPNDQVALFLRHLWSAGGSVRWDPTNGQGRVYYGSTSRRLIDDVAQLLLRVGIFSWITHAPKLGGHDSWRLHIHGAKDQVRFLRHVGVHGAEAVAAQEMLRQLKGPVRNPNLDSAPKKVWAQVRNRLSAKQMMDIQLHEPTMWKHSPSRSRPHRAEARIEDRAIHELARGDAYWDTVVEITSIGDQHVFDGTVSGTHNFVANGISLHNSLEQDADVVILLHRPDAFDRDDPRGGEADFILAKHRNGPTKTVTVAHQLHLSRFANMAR

[7] = target: T2, Protein RecA (Mycobacterium tuberculosis, UniProt P9WHJ3); assay: Fluorescence Cell-Free Homogeneous Dose Retest to Identify Inhibitors of RecA-Intein Splicing Activity. [Related pubchem assays (depositor defined):AID2097, AID2223, AID489010, AID492950]; assay type: functional
T2 sequence (P9WHJ3 whole entry): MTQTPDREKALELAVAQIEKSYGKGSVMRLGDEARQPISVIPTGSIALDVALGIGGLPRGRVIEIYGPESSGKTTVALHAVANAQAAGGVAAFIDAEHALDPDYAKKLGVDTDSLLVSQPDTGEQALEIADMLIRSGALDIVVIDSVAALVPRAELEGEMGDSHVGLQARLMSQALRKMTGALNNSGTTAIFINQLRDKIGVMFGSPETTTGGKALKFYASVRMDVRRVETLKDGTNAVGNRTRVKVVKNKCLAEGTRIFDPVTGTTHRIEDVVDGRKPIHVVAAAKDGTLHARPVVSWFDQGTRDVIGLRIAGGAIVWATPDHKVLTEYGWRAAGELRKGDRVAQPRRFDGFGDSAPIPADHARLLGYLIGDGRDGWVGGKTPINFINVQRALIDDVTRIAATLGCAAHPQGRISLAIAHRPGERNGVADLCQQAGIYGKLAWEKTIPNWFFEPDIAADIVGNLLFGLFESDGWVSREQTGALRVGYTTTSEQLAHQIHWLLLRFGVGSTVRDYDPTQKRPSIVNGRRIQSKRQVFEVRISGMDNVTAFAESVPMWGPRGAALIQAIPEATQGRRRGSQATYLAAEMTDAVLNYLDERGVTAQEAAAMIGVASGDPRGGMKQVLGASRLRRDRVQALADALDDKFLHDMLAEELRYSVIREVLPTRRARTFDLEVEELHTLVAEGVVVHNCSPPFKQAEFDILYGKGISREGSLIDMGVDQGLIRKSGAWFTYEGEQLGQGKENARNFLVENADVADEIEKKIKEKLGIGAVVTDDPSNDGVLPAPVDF

[8] = microbe, parasite or virus in culture; assay type: functional; conditions: Mycobacterium tuberculosis
[9] = inhibitors of firefly luciferase expression or activity, dose response, H4 neuroglioma cells, luminescence (AID 1990); assay type: functional, cell-based
[10] = Luminescence Cell-Based Dose Response HTS to Identify Inhibitors of 5'UTR Stem-Loop Driven Prion Protein mRNA Translation in H4 Neuroglioblastoma Cells. [Related pubchem assays: 1827 (Project Summary), 1813 (Primary HTS)]; assay type: functional
[11] = inhibitors of SNCA 5'UTR-driven reporter translation, confirmation, H4 neuroglioma cells, luminescence (AID 1988); assay type: functional, cell-based
[12] = test system: Streptococcus sp. 'group A'; assay: growth inhibition of control SK(-) GAS strain, dose response, counter-screen for streptokinase expression inhibitor project, luminescence, kanamycin, BacTiterGlo, confirmation (AID 1900); assay type: functional, organism-based
[13] = target: T3, Streptokinase A (Streptococcus pyogenes serotype M1, UniProt P10520); assay: S. pyogenes streptokinase expression inhibitors, potency, dose response, plasminogen activation absorbance, OD405 (AID 1914); assay type: functional, Streptococcus pyogenes M1 GAS;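 further: secreted streptokinase activity via plasminogen activation per viability signal from cell pellet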
T3 sequence (P10520 whole entry): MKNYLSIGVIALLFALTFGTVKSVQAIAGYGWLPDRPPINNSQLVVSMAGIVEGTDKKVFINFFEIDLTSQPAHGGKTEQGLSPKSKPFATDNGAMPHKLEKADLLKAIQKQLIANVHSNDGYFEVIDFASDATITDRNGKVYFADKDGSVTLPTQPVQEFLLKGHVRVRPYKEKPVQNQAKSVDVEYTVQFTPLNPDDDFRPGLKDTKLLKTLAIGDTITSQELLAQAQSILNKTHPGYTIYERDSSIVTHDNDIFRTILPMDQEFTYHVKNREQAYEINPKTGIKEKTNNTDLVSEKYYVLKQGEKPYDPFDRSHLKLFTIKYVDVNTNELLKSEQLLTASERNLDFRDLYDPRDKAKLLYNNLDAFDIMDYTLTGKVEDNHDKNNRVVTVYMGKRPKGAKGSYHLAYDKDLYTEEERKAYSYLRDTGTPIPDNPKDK

[14] = test system: Streptococcus; assay: Group A Streptococcus viability loss, dose response, counter-screen for streptokinase expression inhibitor project, luminescence, BacTiterGlo (AID 1915); assay type: functional, organism-based;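 further: potency for reduction of bacterial viability or growth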
[15] = inhibitors of intracellular T. cruzi replication, confirmation, NIH3T3 host cells, beta-gal luminescence (AID 2044); assay type: functional, cell-based;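 further: intracellular parasites grown in NIH/3T3 mouse fibroblasts as host cells; luminescent beta-galactosidase reporter signal from transgenic T. cruzi replicating inside host cells; inhibitors lower the luminescence signal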
[16] = cytotoxicity toward NIH3T3 fibroblasts, dose response, counter-screen, cell-based, ATP luminescence, mouse fibroblasts (AID 2010); assay type: functional;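 further: cells exposed to compound for about 90 hours before reading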

Sequence of Nonstructural protein 1 (Q194T2 whole entry): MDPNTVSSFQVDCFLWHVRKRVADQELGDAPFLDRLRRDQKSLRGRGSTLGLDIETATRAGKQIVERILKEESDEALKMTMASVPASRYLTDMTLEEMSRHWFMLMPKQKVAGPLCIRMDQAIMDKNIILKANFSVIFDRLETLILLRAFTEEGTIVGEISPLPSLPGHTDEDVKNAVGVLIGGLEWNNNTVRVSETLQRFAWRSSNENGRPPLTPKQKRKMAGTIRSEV

In the case of `O=C(CCc1nc(O)c2ccccc2n1)NNC(=O)c1ccccc1Cl`, the IC50 [1] is reported as 16.2 µM (active).
In the case of `O=C1c2ccccc2-c2onc3c(N4CCN(CCO)CC4)cc(N4CCN(C(=O)c5ccco5)CC4)c1c23`, the IC50 [2] is reported as 9.93 µM (active).
For `CCCCN(Cc1nc(O)c2ccccc2n1)C(=O)CN1C(=O)NC2(CCCCC2)C1=O`, the IC50 [1] was 16.4 µM (active).
In the case of `CC(OC(=O)CCc1nc(O)c2ccccc2n1)C(=O)NC1CCCC1` (stereo not drawn), the IC50 [1] is reported as 30.3 µM (inactive).
In the case of `CCOC(=O)c1ccc(NC(=O)Nc2ccn(C)n2)cc1`, the EC50 [3] is reported as > 150 µM (inconclusive) and the EC50 [4] is reported as 4.84 µM (active).
For `O=C(Nc1cccc(/N=C/c2cc(Cl)cc(Br)c2O)c1)c1ccco1`, the IC50 [1] was 12.3 µM (active).
In the case of `O=C(O)c1cccc(N/N=C(\N=Nc2ccccc2)c2ccccc2)c1`, the AC50 [5] is reported as 2.45 µM (active), the IC50 [2] is reported as 34.5 µM (active) and the AC50 [6] is reported as 7.75 µM (active). For the same compound, the EC50 [7] was 51.1 µM (active).
For `Cc1cc(N2C(=O)C(O)=C(C(=O)c3cc4ccccc4o3)C2c2cccs2)no1` (stereo not drawn), the EC50 [3] was 70.9 µM (active) and the EC50 [4] was 1.17 µM (active).
For `CCOc1ccc(N2CCc3c(C)nc(SC)nc32)cc1`, the CC50 [8] was 34.9 µM (active).
In the case of `COc1ccccc1C(=O)NCC(=O)N/N=C/c1cc(Br)ccc1OC(=O)/C=C\c1ccco1`, the EC50 [9] is reported as 11.9 µM (active), the EC50 [10] is reported as 12 µM (active) and the EC50 [11] is reported as 11 µM (active). The IC50 [1] was > 79 µM (inactive).
In the case of `CCC(c1nnnn1Cc1ccco1)N(Cc1cc2cc(C)cc(C)c2nc1O)CC1CCCO1` (stereo not drawn), the IC50 [1] is reported as > 79 µM (inactive).
For `CCCCCn1c(N)c(-c2nc3ccccc3s2)c2c([N+](=O)[O-])nn(CC)c(=O)c21`, the EC50 [12] was 6.03 µM (active), the EC50 [13] was > 150 µM (not active) and the EC50 [14] was > 150 µM (not active). The IC50 [2] was > 50 µM (active).
In the case of `Nc1nonc1-n1nnc(C(=O)N/N=C/c2ccccn2)c1CNc1ccccc1`, the IC50 [1] is reported as 18.1 µM (active).
With `CC(C)OC(=O)C(=O)NNc1ccccc1` the EC50 [3] was 1.21 µM (active), the EC50 [4] was > 38 µM (not active) and the EC50 [15] was 0.792 µM (active). For the same compound, the EC50 [16] was < 6 µM (inconclusive) and the AC50 [5] was 0.731 µM (active).
For `CCc1noc(C)c1C(=O)Nc1nc(-c2ccc(F)cc2)c(C)s1`, the CC50 [8] was > 40 µM (active).
With `Oc1ccc(NCc2nnc(O)c3ccccc23)cc1` the IC50 [1] was > 79 µM (inactive).
With `Cc1c(C(=O)Nc2nc3ccccc3[nH]2)oc2c(Cl)cccc12` the EC50 [12] was 1.72 µM (active), the EC50 [15] was 1.68 µM (active) and the CC50 [8] was 32.4 µM (active). For the same compound, the EC50 [16] was > 60 µM (not active) and the EC50 [14] was 8.37 µM (active).
In the case of `CCCCN(C)C(=O)Cc1c(OC)ccc2cc(Br)ccc12`, the CC50 [8] is reported as > 40 µM (active).
With `COc1ccccc1NC(=O)Nc1nc(CC(=O)Nc2ccc(N(C)C)cc2)cs1` the IC50 [2] was 26.9 µM (active).
With `Cc1cccc(OCCn2nc(C(=O)O)c3ccccc3c2=O)c1` the IC50 [1] was > 79 µM (inactive).
With `O=C(CC(NCCN1CCOCC1)C(=O)O)Nc1cccc(Cl)c1` (stereo not drawn) the EC50 [3] was 86.4 µM (active) and the EC50 [4] was > 38 µM (not active).
In the case of `CCCOP(=O)(OCCC)c1c([N+](=O)[O-])cc(C(F)(F)F)cc1[N+](=O)[O-]`, the CC50 [8] is reported as 24.2 µM (active).
For `Cc1ccccc1NC(=O)CSc1nn2c(=O)c(C)nnc2s1`, the IC50 [2] was 10.5 µM (active).
With `Cc1ccc(C(C(=O)NCc2ccccc2)N(Cc2ccco2)C(=O)c2snc(C(N)=O)c2N)o1` (stereo not drawn) the IC50 [1] was > 79 µM (inactive).
For `COc1ccc(CNC(=O)c2ccc(Cn3nc(C)c([N+](=O)[O-])c3C)o2)cc1`, the IC50 [1] was > 79 µM (inactive).
With `CN(C)c1ccc(C=NN2CCCCCC2)cc1` the IC50 [2] was 48.1 µM (active).
For `O=C(CCS(=O)(=O)c1ccccc1)Nc1nnc(C(F)(F)F)s1`, the EC50 [3] was > 160 µM (inactive) and the EC50 [4] was 0.302 µM (active).
